In patent US20040158066A1, “Novel pyridylmethylaminopyrimidines” (priority 2001, published 2004):
In brackets after ≈: the same amount, converted by molar mass.

Columns and labels:
[1] = system: Helicobacter pylori; experiment: Inhibition of growth in vitro in liquid culture (NanoOrange fluorescence); format: cell-based; conditions: liquid culture BHI/6% FCS medium, 24 hours incubation at 37° C., microaerobic, 1% DMSO
Excerpt: Determination of the Inhibition of Growth In Vitro in Liquid Culture
The principle of the technique is based on the detection of the multiplication of, for example, Helicobacter pylori in liquid culture using BHI/6% FCS medium. The method ensures linear fluorescence increase in the range from 3×10^6 to 3×10^8 cells.
The bacterial culture was distributed with an initial density of 1-3×10^6 microbes/ml in a 96-well MTP in […]. The test substances in a concentration of […] in a final concentration of 1% DMSO were added to these minicultures. These MTPs were then incubated under microaerobic conditions (Anaerokult, Merck) and with shaking at 37° C. for 24 hours. Following the 24-hour incubation, the minicultures were transferred to filter MTPs and washed twice with isotonic buffer (filtered off with suction, taken up, shaken) and finally were taken up in double-distilled water and shaken, and an aliquot was transferred to a new MTP. This aliquot was admixed with the fluorescent dye NanoOrange (Molecular Probes) in accordance with the manufacturer's instructions. Development of protein detection took place at 90° C. in a pressure-secured sandwich technique. After the plates had cooled, the fluorescence was measured on a plate reader at 549 nm. […] This calculation was made using origin, sigmoidal curve adaptation by means of the ‘logistic’ algorithm.

[2] = system: Helicobacter pylori; experiment: Helicobacter pylori eradication rate in vivo (urease test on antrum tissue); conditions: infected gerbils; 50 mg/kg by tube, 3 × daily for 4 days; urease test four weeks after last treatment
Protocol: Determination of the Helicobacter pylori Eradication Rate In Vivo
Gerbils were infected on days 1, 3, and 5 with a suspension containing 10^8-10^9 Helicobacter pylori bacteria per animal. […] Beginning on day 36, the gerbils were treated on four successive days—three times daily at 07.30, 11.30, and 15.00 hours—with a placebo or the test substance, using a tube. Four weeks after the last treatment, the gerbils were sacrificed using CO2. A tissue sample of the antrum was introduced into the urease test solution and incubated at 37° C. for 24 hours. Changes in color of the solution from yellow to violet, which resulted from the increase in pH caused by the formation of NH3 from the urease, were detected. The eradication rate was calculated as the percentage of animals whose stomach tissue sample gave a negative urease test.
Conditions Under which the Animals were Kept:
Groups of 5-10 gerbils per cage (type IV Macrolon cage) were kept at an ambient temperature of 23±2° C. and a relative humidity of 50±10%. They were fed ad libitum with NAFAG feed No. 9439 for rats and mice (NAFAG AG, CH-2900, Gossau, Switzerland) and had free access to mains water during the experiment.
The substances administered are referenced in table C below using numbers which correspond to the numbers of the compounds in the examples.

[3] = system: Helicobacter pylori; experiment: Agar dilution test (inhibition of growth in vitro on agar plates); format: cell-based; conditions: 96 h, Columbia agar (Oxoid), growth period of 4 days, read-out: approx. MIC50
Excerpt: Agar Dilution Test (Determination of the Inhibition of Growth In Vitro on Agar Plates)
The compounds of the formula I were investigated for their activity against Helicobacter pylori in accordance with the methodology described by Tomoyuki Iwahi et al. (Antimicrobial Agents and Chemotherapy, 1991, 490-496) using Columbia agar (Oxoid) over a growth period of 4 days.

| Compound | melting point | IC50 [1] | Eradication rate [2] | MIC50 [3] |
| --- | --- | --- | --- | --- |
| Cc1nc(C)c(Cl)c(NCc2ccc(OCCn3c([N+](=O)[O-])cnc3C)c(Cl)n2)n1 [Compound 8, (5-Chloro-2,6-dimethylpyrimidin-4-yl)-{6-chloro-5-[2-(2-methyl-5-nitroimidazol-1-yl)ethoxy]pyridin-2-ylmethyl}amine] | 206 to 208 °C | – | – | – |
| Cc1nc(C)c(Cl)c(NCc2ccc(Oc3ccc4ncc([N+](=O)[O-])n4n3)cn2)n1.O=S(=O)(O)O | 233 to 234 °C | – | – | – |
| Cc1nc(C)c(Cl)c(NCc2ccc(Oc3ccc4ncc([N+](=O)[O-])n4n3)cn2)n1 [Compound 3, (5-Chloro-2,6dimethylpyrimidin-4-yl){5-(3-nitroimidazo[1,2-b]pyridazin-6-yloxy)pyridin-2-ylmethyl}amine] | 194 to 198 °C | 0.035 µM | 100% | ~0.1 mg/L (≈ 0.234 µM) |
| COc1c(OCCn2c([N+](=O)[O-])cnc2C)cnc(CNc2nc(C)nc(C)c2Cl)c1C [Compound 2, (5-Chloro-2,6-dimethylpyrimidin-4-yl){4-methoxy-3-methyl-5-[2-(2-methyl-5-nitroimidazol-1-yl)ethoxy]pyridin-2-ylmethyl}amine] | 182.5 to 184 °C | 0.064 µM | – | ~0.1 mg/L (≈ 0.216 µM) |
| Cc1nc(C)c(Cl)c(NCc2ccc(Oc3ccc4ncc([N+](=O)[O-])n4n3)cn2)n1.Cl.Cl | 280 to 281 °C | – | – | – |
| COc1c(Oc2ccc3ncc([N+](=O)[O-])n3n2)cnc(CNc2nc(C)nc(C)c2Cl)c1C [Compound 1, (5-Chloro-2,6-dimethylpyrimidin-4-yl)[4-methoxy-3-methyl-5-(3-nitroimidazo[1,2-b]pyridazin-6-yloxy)pyridin-2-ylmethyl]amine] | 229.5 to 231.5 °C | 0.012 µM | – | ~0.1 mg/L (≈ 0.212 µM) |
| Cc1nc(C)c(Cl)c(NCc2ccc(Oc3ccc4ncc([N+](=O)[O-])n4n3)c(Cl)n2)n1 [Compound 7, (5-Chloro-2,6-dimethylpyrimidin-4-yl)-[6-chloro-5-(3-nitroimidazo[1,2-b]pyridazin-6-yloxy)pyridin-2-ylmethyl]amine] | 184 to 186 °C | – | – | – |
| Cc1nc(C)c(Cl)c(CNCc2ccc(Oc3ccc4ncc([N+](=O)[O-])n4n3)cn2)n1 [Compound 9, (5-Chloro-2,6-dimethylpyrimidin-4-yl)methyl-[5-(3-nitroimidazo[1,2-b]pyridazin-6-yloxy)pyridin-2-ylmethyl]amine] | 183 to 184 °C | – | – | – |
| Cc1nc(C)c(Cl)c(NCc2ccc(OCCn3c([N+](=O)[O-])cnc3C)cn2)n1 [Compound 4, (5-Chloro-2,6-dimethylpyrimidin-4-yl){5-[2-(2-methyl-5-nitroimidazol-1-yl)ethoxy]pyridine-2-ylmethyl}amine] | 181.5 to 183.5 °C | 0.04 µM | – | ~0.1 mg/L (≈ 0.239 µM) |
